Data reported in ChEMBL document CHEMBL2010743, “Adamantyl N-benzylbenzamide: new series of depigmentation agents with tyrosinase inhibitory activity” (Bioorg Med Chem Lett, 2012).
One block for each compound: values may come before it.

How the values were obtained:
Tyrosinase = molecular target: T1, Tyrosinase (Agaricus bisporus, UniProt O42713); experiment: Inhibition of mushroom tyrosinase
T1 sequence (O42713 whole entry): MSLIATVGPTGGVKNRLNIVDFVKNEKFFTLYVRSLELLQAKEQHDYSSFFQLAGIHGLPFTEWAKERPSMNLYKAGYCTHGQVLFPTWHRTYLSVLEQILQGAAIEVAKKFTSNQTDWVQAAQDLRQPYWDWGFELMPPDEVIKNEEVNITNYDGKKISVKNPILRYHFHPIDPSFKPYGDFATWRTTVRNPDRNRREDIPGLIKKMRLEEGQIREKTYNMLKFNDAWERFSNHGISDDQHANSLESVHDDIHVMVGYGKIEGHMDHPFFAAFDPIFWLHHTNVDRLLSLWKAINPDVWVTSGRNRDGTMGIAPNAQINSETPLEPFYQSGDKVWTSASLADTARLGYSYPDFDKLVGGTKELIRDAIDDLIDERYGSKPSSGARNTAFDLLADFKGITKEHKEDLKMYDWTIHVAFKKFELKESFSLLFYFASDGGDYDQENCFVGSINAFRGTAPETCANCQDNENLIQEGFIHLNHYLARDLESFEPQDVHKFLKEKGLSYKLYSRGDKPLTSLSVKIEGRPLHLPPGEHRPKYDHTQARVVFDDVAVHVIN

B16 [1] = experiment: cells; details: Mus musculus
in vitro = details: mouse, B16 cells
Description: Cytotoxicity in mouse B16 cells assessed as cell viability at 10 uM after 72 hrs

B16 [2] = experiment: Ratio of kojic acid IC50 to compound IC50 for inhibition of melanogenesis in mouse B16 cells; format: functional
B16 [3] = experiment: Antimelanogenic activity in mouse B16 cells assessed as inhibition of melanogenesis at 1 uM; format: functional
[4] = Cytotoxicity in mouse B16 cells assessed as cell viability at 1 uM after 72 hrs; format: cell-based; details: read-out: Activity
B16 [5] = experiment: Antimelanogenic activity in mouse B16 cells assessed as inhibition of melanogenesis at 3 uM; format: functional
[6] = molecular target: T2, Tyrosinase (Agaricus bisporus) (UniProt O42713); experiment: Inhibition of mushroom tyrosinase at 1 uM
T2 sequence (whole entry): T1 sequence (O42713 whole entry)

[7] = molecular target: T2, Tyrosinase (Agaricus bisporus); experiment: Ratio of kojic acid IC50 to compound IC50 for mushroom tyrosinase

Compound: O=C(NCc1ccc(O)cc1O)c1ccc(O)c(C23CC4CC(CC(C4)C2)C3)c1
IC50 (Tyrosinase): 0.9 µM
viability at 72 h, 10 µM (in vitro): 41%
inhibition at 1 µM (B16 [3]): < 5%
viability at 72 h, 1 µM [4]: 99%

Compound: COc1ccc(C(=O)NCc2ccc(O)cc2O)c(O)c1
IC50 (Tyrosinase): 0.3 µM
Ratio IC50 [7]: 30
IC50 (B16 [1]): 27.6 µM
viability at 72 h, 10 µM (in vitro): 96%

Compound: COc1ccc(C(=O)NCc2ccc(O)cc2O)c(OC)c1
IC50 (Tyrosinase): 0.4 µM
Ratio IC50 [7]: 30
IC50 (B16 [1]): 14.2 µM
viability at 72 h, 10 µM (in vitro): 100%

Compound: COc1ccc(C(=O)NCc2ccc(O)cc2O)cc1C12CC3CC(CC(C3)C1)C2
IC50 (Tyrosinase): 1.4 µM
viability at 72 h, 10 µM (in vitro): 44%
inhibition at 1 µM (B16 [3]): < 5%
viability at 72 h, 1 µM [4]: 100%

Compound: O=C(NCc1ccc(O)cc1O)c1ccc(O)cc1O
IC50 (Tyrosinase): 0.9 µM
Ratio IC50 [7]: 30
IC50 (B16 [1]): 26.7 µM
viability at 72 h, 10 µM (in vitro): 100%

Compound: CCCCc1ccc(O)cc1O [RUCINOL]
IC50 (B16 [1]): 20 µM

The next lines start with results.

IC50 (Tyrosinase): 0.9 µM
IC50 (B16 [1]): 1.1 µM
Compound: COc1cc(OC)c(C23CC4CC(CC(C4)C2)C3)cc1C(=O)NCc1ccc(O)cc1O
viability at 72 h, 10 µM (in vitro): 95%
Ratio IC50 (B16 [2]): 200

IC50 (Tyrosinase): 1.1 µM
Compound: O=C(NCc1ccc(O)cc1O)c1cc(C23CC4CC(CC(C4)C2)C3)c(O)cc1O
viability at 72 h, 10 µM (in vitro): 62%
inhibition at 1 µM (B16 [3]): < 5%
viability at 72 h, 1 µM [4]: 86%
inhibition at 3 µM (B16 [5]): 90%

IC50 (Tyrosinase): 0.8 µM
IC50 (B16 [1]): 1.8 µM
Compound: COc1cc(O)c(C(=O)NCc2ccc(O)cc2O)cc1C12CC3CC(CC(C3)C1)C2
viability at 72 h, 10 µM (in vitro): 100%
Ratio IC50 (B16 [2]): 200

inhibition [6]: < 5%
Compound: O=C(NCc1ccccc1O)c1cc(C23CC4CC(CC(C4)C2)C3)c(O)cc1O

inhibition [6]: < 5%
Compound: O=C(NCc1ccc(O)cc1)c1cc(C23CC4CC(CC(C4)C2)C3)c(O)cc1O

inhibition [6]: < 5%
Compound: COc1ccc(CNC(=O)c2cc(C34CC5CC(CC(C5)C3)C4)c(O)cc2O)c(OC)c1
